In PubChem BioAssay (NCI):
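96-well plates; 48 h exposure; 5 concentrations. Endpoints by linear interpolation between flanking doses. Not reached: highest tested concentration assigned. At the TGI there is no net growth.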

Experiments:
Experiment in all cases: NCI-60 cell line screen, 48 h
[1] = test system: SK-OV-3 ovarian
[2] = test system: HOP-92 NSCLC
[3] = test system: NCI-H522 lung
[4] = test system: SF-539 CNS
[5] = test system: BT-549 breast
[6] = test system: PC-3 prostate
[7] = test system: U251 CNS
[8] = test system: HCC-2998 colon
[9] = test system: SF-295 CNS
[10] = test system: HCT-15 colon
[11] = test system: SK-MEL-28 melanoma
[12] = test system: RPMI-8226 leukemia
[13] = test system: SNB-75 CNS
[14] = test system: HT29 colon
[15] = test system: OVCAR-3 ovarian
[16] = test system: MCF7 breast
[17] = test system: 786-0 renal
[18] = test system: CAKI-1 renal
[19] = test system: T-47D breast
[20] = test system: SN12C renal
[21] = test system: DU-145 prostate
[22] = test system: HOP-62 NSCLC
[23] = test system: HL-60(TB) leukemia
[24] = test system: HCT-116 colon
[25] = test system: SK-MEL-5 melanoma
[26] = test system: COLO 205 colon
[27] = test system: ACHN renal
[28] = test system: IGROV1 ovarian
[29] = test system: NCI-H23 lung
[30] = test system: EKVX NSCLC
[31] = test system: UACC-62 melanoma
[32] = test system: MOLT-4 leukemia
[33] = test system: MDA-N
[34] = test system: A498 renal
[35] = test system: MDA-MB-435
[36] = test system: HS 578T breast
[37] = test system: TK-10 renal
[38] = test system: NCI/ADR-RES ovarian
[39] = test system: OVCAR-8 ovarian
[40] = test system: K-562 leukemia
[41] = test system: SNB-19 CNS
[42] = test system: OVCAR-4 ovarian
[43] = test system: SW-620 colon
[44] = test system: UO-31 renal
[45] = test system: MALME-3M melanoma
[46] = test system: NCI-H226 lung
[47] = test system: SK-MEL-2 melanoma
[48] = test system: OVCAR-5 ovarian
[49] = test system: KM12 colon
[50] = test system: SR leukemia
[51] = test system: RXF 393 renal
[52] = test system: SF-268 CNS
[53] = test system: A549 NSCLC
[54] = test system: LOX IMVI melanoma
[55] = test system: CCRF-CEM leukemia
[56] = test system: M14 melanoma
[57] = test system: MDA-MB-231 breast
[58] = test system: UACC-257 melanoma
[59] = test system: NCI-H460 lung
[60] = test system: SNB-78 CNS
[61] = test system: LXFL 529 NSCLC
[62] = test system: KM20L2 colon
[63] = test system: DLD-1 colon
[64] = test system: M19-MEL melanoma

In the case of C=C1c2nc3ccccc3n2C=C(c2ccc(C)cc2)N1c1ccccc1, the TGI [1] is reported as greater than 100 µM, the TGI [2] is reported as greater than 100 µM and the TGI [3] is reported as 25.2 µM. For the same compound, the TGI [4] was 7.46 µM, the TGI [5] was greater than 86.7 µM and the TGI [6] was greater than 79.5 µM. It also gave a TGI [7] of 68.2 µM, a TGI [8] of 10.7 µM and a TGI [9] of 13.6 µM. The TGI [10] was greater than 38 µM, the TGI [11] was greater than 100 µM and the TGI [12] was greater than 34.5 µM. The TGI [13] was 15.9 µM, the TGI [14] was 9.77 µM and the TGI [15] was greater than 40.9 µM. For the same compound, the TGI [16] was greater than 100 µM, the TGI [17] was greater than 59.9 µM and the TGI [18] was greater than 100 µM. The TGI [19] was greater than 100 µM, the TGI [20] was greater than 100 µM and the TGI [21] was greater than 100 µM. It also gave a TGI [22] greater than 100 µM, a TGI [23] of 16.3 µM and a TGI [24] greater than 81 µM. The TGI [25] was 31.9 µM, the TGI [26] was greater than 33.2 µM and the TGI [27] was greater than 100 µM. For the same compound, the TGI [28] was greater than 100 µM, the TGI [29] was greater than 100 µM and the TGI [30] was greater than 40.6 µM. For the same compound, the TGI [31] was greater than 100 µM, the TGI [32] was 99 µM and the TGI [33] was 4.39 µM. It also gave a TGI [34] greater than 100 µM, a TGI [35] of 10.7 µM and a TGI [36] greater than 30.6 µM. The TGI [37] was greater than 100 µM, the TGI [38] was greater than 29.1 µM and the TGI [39] was greater than 63.4 µM. It also gave a TGI [40] greater than 100 µM, a TGI [41] greater than 100 µM and a TGI [42] greater than 100 µM. The TGI [43] was greater than 100 µM, the TGI [44] was greater than 100 µM and the TGI [45] was greater than 43.3 µM. It also gave a TGI [46] of 15.3 µM, a TGI [47] greater than 46.1 µM and a TGI [48] greater than 100 µM. It also gave a TGI [49] of 22 µM, a TGI [50] of 6.82 µM and a TGI [51] greater than 44 µM. It also gave a TGI [52] greater than 100 µM, a TGI [53] greater than 100 µM and a TGI [54] of 66 µM. It also gave a TGI [55] greater than 54.8 µM, a TGI [56] greater than 61.2 µM and a TGI [57] greater than 53.6 µM. For the same compound, the TGI [58] was greater than 100 µM and the TGI [59] was 27.1 µM.
For S=c1[nH]nc(-c2ccccc2)n1/N=C\c1ccc(-c2ccc(Cl)cc2)o1, the TGI [1] was greater than 100 µM, the TGI [2] was greater than 100 µM and the TGI [3] was greater than 100 µM. For the same compound, the TGI [4] was greater than 100 µM, the TGI [7] was greater than 100 µM and the TGI [60] was greater than 100 µM. For the same compound, the TGI [61] was greater than 100 µM, the TGI [9] was greater than 100 µM and the TGI [11] was greater than 100 µM. It also gave a TGI [62] greater than 100 µM, a TGI [12] greater than 100 µM and a TGI [13] greater than 100 µM. For the same compound, the TGI [14] was greater than 100 µM, the TGI [15] was greater than 100 µM and the TGI [17] was greater than 100 µM. It also gave a TGI [22] greater than 100 µM, a TGI [23] greater than 100 µM and a TGI [63] greater than 100 µM. It also gave a TGI [24] greater than 100 µM, a TGI [64] greater than 100 µM and a TGI [26] greater than 100 µM. For the same compound, the TGI [27] was greater than 100 µM, the TGI [28] was greater than 100 µM and the TGI [29] was greater than 100 µM. For the same compound, the TGI [31] was greater than 100 µM, the TGI [32] was greater than 100 µM and the TGI [37] was greater than 100 µM. For the same compound, the TGI [39] was greater than 100 µM, the TGI [40] was greater than 100 µM and the TGI [41] was greater than 100 µM. For the same compound, the TGI [42] was greater than 100 µM, the TGI [43] was greater than 100 µM and the TGI [44] was greater than 100 µM. It also gave a TGI [46] greater than 100 µM, a TGI [48] greater than 100 µM and a TGI [49] greater than 100 µM. For the same compound, the TGI [50] was greater than 100 µM, the TGI [52] was greater than 100 µM and the TGI [53] was greater than 100 µM. For the same compound, the TGI [54] was greater than 100 µM, the TGI [56] was greater than 100 µM and the TGI [58] was greater than 100 µM. It also gave a TGI [59] greater than 100 µM.
